These results are taken from ChEMBL document CHEMBL1921682, “Molecular properties prediction and synthesis of novel 1,3,4-oxadiazole analogues as potent antimicrobial and antitubercular agents” (Bioorg Med Chem Lett, 2011).

Each structure is given as a SMILES string. ≈ marks a conversion by molar mass, not a printed value. Where only a bound is given, the exact number is not on record here.

One test deals with Mycobacterium tuberculosis.
Assay: not given
In kind it is functional.
On to `Cc1c(NCc2nnc(-c3ccc(N)cc3)o2)c(=O)n(-c2ccccc2)n1C`, for which the Ratio was found to be 1.4. Still for that read-out and setting: the figure for `Cc1c(NCc2nnc(-c3ccncc3)o2)c(=O)n(-c2ccccc2)n1C` is 7.6.

The test system of the next test is Mycobacterium tuberculosis. In words: microbe, parasite or virus in culture.
`NNC(=O)c1ccncc1` [ISONIAZID] returned an MIC90 of 11.6 µM (≈ 1.59 µg/mL). In the case of `Cc1ccc(-c2nnc(CNc3c(C)n(C)n(-c4ccccc4)c3=O)o2)cc1`, the MIC90 came out at 13.3 µM (≈ 5 µg/mL). On the same count and under the same terms, the figure for `Cc1c(NCc2nnc(COc3ccccc3)o2)c(=O)n(-c2ccccc2)n1C` is 12.8 µM (≈ 5 µg/mL).

With `Cc1c(NCc2nnc(-c3ccccc3Cl)o2)c(=O)n(-c2ccccc2)n1C`, the MIC90 turned out to be 12.7 µM (≈ 5.01 µg/mL). For `Cc1c(NCc2nnc(-c3ccc(N)cc3)o2)c(=O)n(-c2ccccc2)n1C`, the MIC90 amounted to 8.29 µM (≈ 3.12 µg/mL).

Take `Cc1c(NCc2nnc(-c3ccccc3)o2)c(=O)n(-c2ccccc2)n1C`: the MIC90 came to 13.8 µM (≈ 4.99 µg/mL). Same read-out and setting: the figure for `Cc1c(NCc2nnc(-c3ccc(Cl)cc3)o2)c(=O)n(-c2ccccc2)n1C` is 12.7 µM (≈ 5.01 µg/mL); for `Cc1c(NCc2nnc(-c3ccncc3)o2)c(=O)n(-c2ccccc2)n1C` it is 1.52 µM (≈ 0.551 µg/mL).

For the molecule `Cc1c(NCc2nnc(-c3cccs3)o2)c(=O)n(-c2ccccc2)n1C`, the MIC90 was 13.6 µM (≈ 5 µg/mL).

Take `Cc1c(NCc2nnc(Cc3ccccc3)o2)c(=O)n(-c2ccccc2)n1C`: the MIC90 was over 13.3 µM.
